From ChEMBL document CHEMBL5380815, “Probing Ligand Binding Sites on Large Proteins by Nuclear Magnetic Resonance Spectroscopy of Genetically Encoded Non-Canonical Amino Acids” (J Med Chem, 2023) come the findings set out here.

The subject of assay [1] is Replicase polyprotein 1ab (Severe acute respiratory syndrome coronavirus 2), P0DTD1 [UNDEFINED MUTATION]. The assay is described as follows: Inhibition of recombinant SARS-COV2 main protease A255TMSK mutant expressed in Escherichia coli BL21 (DE3) using DABCYL-KTSAVLQSGFRKME-EDANS-NH2 as fluorogenic substrate at 5 to 50 uM preincubated for 10 mins followed by substrate addition by FRET assay. The following applies: dose 5-50 µM.

The test system is the same in assay [2]. The experiment in a line: Inhibition of recombinant SARS-COV2 main protease N72TMSK mutant expressed in Escherichia coli BL21 (DE3) using DABCYL-KTSAVLQSGFRKME-EDANS-NH2 as fluorogenic substrate at 5 to 50 uM preincubated for 10 mins followed by substrate addition by FRET assay. The following applies: dose 5-50 µM.
For assay [3] the test system is unchanged. The experiment in a line: Inhibition of recombinant SARS-COV2 main protease L232TMSK mutant expressed in Escherichia coli BL21 (DE3) using DABCYL-KTSAVLQSGFRKME-EDANS-NH2 as fluorogenic substrate at 5 to 50 uM preincubated for 10 mins followed by substrate addition by FRET assay. The following applies: dose 5-50 µM.
For assay [4] the test system is unchanged. The experiment in a line: Inhibition of recombinant SARS-COV2 main protease V186TMSK mutant expressed in Escherichia coli BL21 (DE3) using DABCYL-KTSAVLQSGFRKME-EDANS-NH2 as fluorogenic substrate at 5 to 50 uM preincubated for 10 mins followed by substrate addition by FRET assay. To be noted: dose 5-50 µM.
For assay [5] the test system is unchanged. The experiment in a line: Inhibition of recombinant SARS-COV2 main protease L50TMSK mutant expressed in Escherichia coli BL21 (DE3) using DABCYL-KTSAVLQSGFRKME-EDANS-NH2 as fluorogenic substrate at 5 to 50 uM preincubated for 10 mins followed by substrate addition by FRET assay. To be noted: dose 5-50 µM.
Assay [6] has the same test system. The experiment in a line: Inhibition of recombinant SARS-COV2 main protease A191TMSK mutant expressed in Escherichia coli BL21 (DE3) using DABCYL-KTSAVLQSGFRKME-EDANS-NH2 as fluorogenic substrate at 5 to 50 uM preincubated for 10 mins followed by substrate addition by FRET assay. The following applies: dose 5-50 µM.
The test system is the same in assay [7]. The assay is described as follows: Inhibition of recombinant SARS-COV2 main protease N142TMSK mutant expressed in Escherichia coli BL21 (DE3) using DABCYL-KTSAVLQSGFRKME-EDANS-NH2 as fluorogenic substrate at 5 to 50 uM preincubated for 10 mins followed by substrate addition by FRET assay. The following applies: dose 5-50 µM.
For assay [8] the test system is unchanged. The experiment in a line: Inhibition of recombinant SARS-COV2 main protease S46TMSK mutant expressed in Escherichia coli BL21 (DE3) using DABCYL-KTSAVLQSGFRKME-EDANS-NH2 as fluorogenic substrate at 5 to 50 uM preincubated for 10 mins followed by substrate addition by FRET assay. To be noted: dose 5-50 µM.
Assay [9] has as its system Replicase polyprotein 1ab (Severe acute respiratory syndrome coronavirus 2), P0DTD1 [V186A]. The assay is described as follows: Inhibition of recombinant SARS-COV2 main protease V186A mutant expressed in Escherichia coli BL21 (DE3) using DABCYL-KTSAVLQSGFRKME-EDANS-NH2 as fluorogenic substrate at 16 to 100 nM preincubated for 10 mins followed by substrate addition by FRET assay. To be noted: dose 16-100 nM.

Assay [10] concerns Replicase polyprotein 1ab (Severe acute respiratory syndrome coronavirus 2), P0DTD1 [UNDEFINED MUTATION]. The experiment in a line: Inhibition of recombinant SARS-COV2 main protease A255TMSK mutant expressed in Escherichia coli BL21 (DE3) using DABCYL-KTSAVLQSGFRKME-EDANS-NH2 as fluorogenic substrate at 16 to 1000 nM preincubated for 10 mins followed by substrate addition by FRET assay. The following applies: dose 16-1000 nM.

For assay [11], the system named is Replicase polyprotein 1ab (Severe acute respiratory syndrome coronavirus 2), P0DTD1 [L50A]. The assay is described as follows: Inhibition of recombinant SARS-COV2 main protease L50A mutant expressed in Escherichia coli BL21 (DE3) using DABCYL-KTSAVLQSGFRKME-EDANS-NH2 as fluorogenic substrate at 16 to 100 nM preincubated for 10 mins followed by substrate addition by FRET assay. The following applies: dose 16-100 nM.

Assay [12] concerns Replicase polyprotein 1ab (Severe acute respiratory syndrome coronavirus 2), P0DTD1 [N72A]. The experiment in a line: Inhibition of recombinant SARS-COV2 main protease N72A mutant expressed in Escherichia coli BL21 (DE3) using DABCYL-KTSAVLQSGFRKME-EDANS-NH2 as fluorogenic substrate at 16 to 100 nM preincubated for 10 mins followed by substrate addition by FRET assay. To be noted: dose 16-100 nM.

In assay [13] the test system is Replicase polyprotein 1ab (Severe acute respiratory syndrome coronavirus 2), P0DTD1 [UNDEFINED MUTATION]. The experiment in a line: Inhibition of recombinant SARS-COV2 main protease N72TMSK mutant expressed in Escherichia coli BL21 (DE3) using DABCYL-KTSAVLQSGFRKME-EDANS-NH2 as fluorogenic substrate at 16 to 1000 nM preincubated for 10 mins followed by substrate addition by FRET assay. To be noted: dose 16-1000 nM.

The test system is the same in assay [14]. The experiment in a line: Inhibition of recombinant SARS-COV2 main protease S46TMSK mutant expressed in Escherichia coli BL21 (DE3) using DABCYL-KTSAVLQSGFRKME-EDANS-NH2 as fluorogenic substrate at 16 to 1000 nM preincubated for 10 mins followed by substrate addition by FRET assay. The following applies: dose 16-1000 nM.
Assay [15] concerns Replicase polyprotein 1ab (Severe acute respiratory syndrome coronavirus 2), P0DTD1 [N142A]. The experiment in a line: Inhibition of recombinant SARS-COV2 main protease N142A mutant expressed in Escherichia coli BL21 (DE3) using DABCYL-KTSAVLQSGFRKME-EDANS-NH2 as fluorogenic substrate at 16 to 100 nM preincubated for 10 mins followed by substrate addition by FRET assay. To be noted: dose 16-100 nM.

Assay [16] deals with Replicase polyprotein 1ab (Severe acute respiratory syndrome coronavirus 2), P0DTD1 [UNDEFINED MUTATION]. The assay is described as follows: Inhibition of recombinant SARS-COV2 main protease N142TMSK mutant expressed in Escherichia coli BL21 (DE3) using DABCYL-KTSAVLQSGFRKME-EDANS-NH2 as fluorogenic substrate at 16 to 1000 nM preincubated for 10 mins followed by substrate addition by FRET assay. The following applies: dose 16-1000 nM.

Assay [17] shares this test system. The assay is described as follows: Inhibition of recombinant SARS-COV2 main protease V186TMSK mutant expressed in Escherichia coli BL21 (DE3) using DABCYL-KTSAVLQSGFRKME-EDANS-NH2 as fluorogenic substrate at 16 to 1000 nM preincubated for 10 mins followed by substrate addition by FRET assay. To be noted: dose 16-1000 nM.
In assay [18] the test system is Replicase polyprotein 1ab (Severe acute respiratory syndrome coronavirus 2), P0DTD1 [N142L]. The assay is described as follows: Inhibition of SARS-COV2 main protease N142L mutant assessed as fold increase in IC50.
In assay [19] the test system is Replicase polyprotein 1ab (Severe acute respiratory syndrome coronavirus 2), P0DTD1 [UNDEFINED MUTATION]. The experiment in a line: Inhibition of recombinant SARS-COV2 main protease L50TMSK mutant expressed in Escherichia coli BL21 (DE3) using DABCYL-KTSAVLQSGFRKME-EDANS-NH2 as fluorogenic substrate at 16 to 1000 nM preincubated for 10 mins followed by substrate addition by FRET assay. To be noted: dose 16-1000 nM.

For assay [20], the system named is Replicase polyprotein 1ab (Severe acute respiratory syndrome coronavirus 2), P0DTD1 [S46A]. The assay is described as follows: Inhibition of recombinant SARS-COV2 main protease S46A mutant expressed in Escherichia coli BL21 (DE3) using DABCYL-KTSAVLQSGFRKME-EDANS-NH2 as fluorogenic substrate at 16 to 100 nM preincubated for 10 mins followed by substrate addition by FRET assay. The following applies: dose 16-100 nM.

In assay [21] the test system is Replicase polyprotein 1ab (Severe acute respiratory syndrome coronavirus 2), P0DTD1 [UNDEFINED MUTATION]. The assay is described as follows: Activation of recombinant SARS-COV2 main protease V297TMSK mutant expressed in Escherichia coli BL21 (DE3) using DABCYL-KTSAVLQSGFRKME-EDANS-NH2 as fluorogenic substrate at 1.5 to 50 uM preincubated for 10 mins followed by substrate addition by FRET assay. To be noted: filed as activator, dose 1.5-50 µM.

Assay [22] shares this test system. The assay is described as follows: Activation of recombinant SARS-COV2 main protease I213TFAK mutant expressed in Escherichia coli BL21 (DE3) using DABCYL-KTSAVLQSGFRKME-EDANS-NH2 as fluorogenic substrate at 15 uM preincubated for 10 mins followed by substrate addition by FRET assay. To be noted: filed as activator.
Assay [23] shares this test system. The experiment in a line: Activation of recombinant SARS-COV2 main protease I213TMSK mutant expressed in Escherichia coli BL21 (DE3) using DABCYL-KTSAVLQSGFRKME-EDANS-NH2 as fluorogenic substrate at 15 uM preincubated for 10 mins followed by substrate addition by FRET assay. The following applies: filed as activator.
The test system is the same in assay [24]. The assay is described as follows: Activation of recombinant SARS-COV2 main protease V297TFAK mutant expressed in Escherichia coli BL21 (DE3) using DABCYL-KTSAVLQSGFRKME-EDANS-NH2 as fluorogenic substrate at 1.5 to 50 uM preincubated for 10 mins followed by substrate addition by FRET assay. The following applies: filed as activator, dose 1.5-50 µM.

The source made the active and inactive calls. The rule behind the calls is not given here.

Regarding `CCCC[C@@H](C=O)NC(=O)[C@H](CC(C)C)NC(=O)OCc1ccccc1`, the inhibition entry in assay [1], in assay [2], in assay [3], in assay [4], in [5] and in [6] was “Dose-Dependent Effect” throughout. Besides, the inhibition entry in assay [7] and in [8] was “Dose-Dependent Effect” each time.
As to `CC(=O)[C@@H]1CSCC(=O)N[C@H](Cc2ccc(O)cc2)C(=O)N[C@@H](CC(C)C)C(=O)N[C@@H](CCC(N)=O)C(=O)N[C@@H](Cc2ccc(O)cc2)C(=O)N[C@@H](C)C(=O)N[C@@H](C(C)C)C(=O)N[C@@H](CC(C)C)C(=O)N[C@@H](CCCNC(=N)N)C(=O)N[C@@H](Cc2c[nH]cn2)C(=O)N[C@@H](CCCCN)C(=O)N[C@@H](CCCNC(=N)N)C(=O)N[C@@H](CCCNC(=N)N)C(=O)N[C@@H](CCC(=O)O)C(=O)C1`, the inhibition entry in assay [9], in assay [10], in assay [11], in assay [12], in [13] and in assay [14] was “Dose-Dependent Effect” throughout. The inhibition entry in assay [15], in [16], in assay [17], in assay [19] and in assay [20] was “Dose-Dependent Effect” throughout. In addition, the fold change (FC) in assay [18] was determined as 5.
For the compound `CCOc1cc2ncc(C#N)c(Nc3ccc(F)c(Cl)c3)c2cc1NC(=O)/C=C/CN(C)C` [PELITINIB], the Activity entry in assay [21] and in assay [24] was “Dose-Dependent Effect” throughout. Also, the outcome in [22] and in assay [23] was Active.
